Test results as given in patent EP2119770B1, “Production of alpha-oxyfunctionalized carbonyl compounds” (priority 2008, dated 2009).

Assays:
Assay type in all cases: biochemical
Gox0644 [1] = molecular target: T1, Gox0644 (Gluconobacter oxydans, UniProt Q5FT75); experiment: Enzyme activity assay (rate of NAD(P)H decrease at 340 nm), Gox0644; conditions: 10 mM substrate; for Specific Activity: Tab. 4, Gox0644, cofactor NADPH, pH 7.0, 30 °C; for Activity: Table 3, Gox0644, K-phosphate buffer pH 7.0, 0.05 mM NAD(P)H, 30 °C
Procedure: (§1) Reactions were induced by addition of enzyme or substrate. One unit of enzyme activity was defined as the amount of enzyme catalyzing the conversion of 1 µmol of pyridine nucleotide per min at 30 °C.
as §1
For each enzyme (Gox0313, Gox0502, Gox0644, Gox0646, Gox1615, Gox2107, and Gox2684 respectively), fresh enzyme preparations were used to validate the substrate spectrum and the kinetic activity. […] Reactions were induced by addition of enzyme or substrate. One unit of enzyme activity was defined as the amount of enzyme catalyzing the conversion of 1 µmol of pyridine nucleotide per min at 30 °C. […] Table 3: Summary of enzymatic activities with α-diketones, α-ketoaldehydes and /or α-ketoesters

Gox1615 = molecular target: T2, Gox1615 (Gluconobacter oxydans, UniProt Q5FQJ0); experiment: Enzyme activity assay (rate of NAD(P)H decrease at 340 nm), Gox1615; conditions: 10 mM substrate; for Specific Activity: Tab. 5, Gox1615, cofactor NADPH, pH 7.0, 30 °C; for Activity: Table 3, Gox1615, K-phosphate buffer pH 7.0, 0.05 mM NAD(P)H, 30 °C
T2 sequence (Q5FQJ0 1-332): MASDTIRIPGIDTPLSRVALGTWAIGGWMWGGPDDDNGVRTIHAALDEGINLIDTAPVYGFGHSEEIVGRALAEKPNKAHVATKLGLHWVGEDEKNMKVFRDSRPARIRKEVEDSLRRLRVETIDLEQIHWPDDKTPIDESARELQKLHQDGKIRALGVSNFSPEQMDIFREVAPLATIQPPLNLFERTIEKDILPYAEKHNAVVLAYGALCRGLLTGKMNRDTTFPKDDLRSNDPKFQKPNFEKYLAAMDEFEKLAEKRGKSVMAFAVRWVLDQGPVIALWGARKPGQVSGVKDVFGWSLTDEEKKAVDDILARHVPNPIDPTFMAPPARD
How it was run: (§2)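 Purified enzymes assayed at 30 °C in 40 mM potassium phosphate pH 7.0 with 10 mM substrate and NAD(P)H (0.025 mM, or 0.05 mM in the standard mixture), started by adding enzyme or substrate. Activity followed as the rate of NAD(P)H decrease at 340 nm; one unit = 1 µmol pyridine nucleotide converted per min; protein measured by Bradford.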

Gox2684 = molecular target: T3, Gox2684 (Gluconobacter oxydans, UniProt Q5HXK5); experiment: Enzyme activity assay (rate of NAD(P)H decrease at 340 nm), Gox2684; conditions: for activities: Gox2684, substrates with highest activities; for Specific Activities: Tab. 8, GOX2684, cofactor NADPH, 10 mM substrate, pH 7.0, 30 °C
T3 sequence (Q5HXK5 1-357): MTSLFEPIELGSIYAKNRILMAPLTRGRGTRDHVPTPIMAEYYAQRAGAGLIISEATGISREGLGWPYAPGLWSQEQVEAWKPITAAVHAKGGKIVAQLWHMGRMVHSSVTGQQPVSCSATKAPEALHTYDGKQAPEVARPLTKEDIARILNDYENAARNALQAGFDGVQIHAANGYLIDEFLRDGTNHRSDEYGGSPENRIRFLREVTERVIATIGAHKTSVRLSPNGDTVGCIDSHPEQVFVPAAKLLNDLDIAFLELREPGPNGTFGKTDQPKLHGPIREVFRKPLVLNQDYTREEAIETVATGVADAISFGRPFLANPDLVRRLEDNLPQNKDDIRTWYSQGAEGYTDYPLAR
How it was run: as §2

Gox0644 [2] = molecular target: T1, Gox0644; experiment: Regioselectivity of bioconversion, product determined by NMR, Gox0644; conditions: bioconversion with Gox1122 cofactor regeneration, NMR analysis
Text: Cofactor regeneration: A prerequisite for the production of α-hydroxycarbonyl compounds is the regeneration of the expensive coenzymes and the stability of the protein catalysts. By coupling two coenzyme-dependent enzyme reactions, NADPH can be continuously regenerated. […] For this purpose, we used a combined enzymatic reaction between the NADPH-dependent oxidoreductases that form α-hydroxycarbonyl compounds and the aldehyde dehydrogenase GOX1122 (see Schweiger, P. et al., J. Mol. Microbiol. Biotechnol. 13:147-155 (2007)) that produces the reduced cofactor in the course of acetaldehyde oxidation. […] The biotransformation was performed in a batch process (total volume 2.5 ml 40 mM potassium phosphate buffer pH 7). 30 µg of purified Gox1122 and of NADPH-dependent oxidoreductases and 50 µM NADPH were added. The substrate concentration in the beginning was 20 mM 2,3-pentanedione and 20 mM acetaldehyde. Fresh substrates were added every 60 min (20 mM each).
NMR: The 2.5 ml bioconversion was extracted with two times equal volume of d-chloroform. ^1H and ^13C NMR spectra were recorded on a DPX 300 Spectrometer (300 MHz) and referenced to the CDCl3 internal standard. Chemical samples analyzed with Bruker NMR Suite 2.5 software constructed final product structures.
2.7 Regioselectivity of GOX0644 and GOX1615: Tab. […] Tab. 10: Summary of Regioselectivity
5 ml bioconversions for determining regioselectivity were set up with 2 mg of proteins Gox0644 and Gox1122, 40 mM potassium phosphate buffer, pH 7.0, 50 µM NADPH. Substrates (20 mM 2,3 pentanedione and acetaldehyde) were added every 30 min. The reaction was followed for 3 h to produce quantities between 40-60 mg of product (hydroxy-pentanone).

SMILES	Specific Activity (Gox0644 [1])	Activity (Gox0644 [1])	Specific Activity (Gox1615)	Activity (Gox1615)	activities (Gox2684)	Specific Activities (Gox2684)	Product (regioselective reduction) (Gox0644 [2])	Product (regioselective reduction) (Gox0644 [2]; listed as 2,3 pentanedione)
O=CC(=O)c1ccccc1 [phenylglyoxal]	66.0 U/mg	66.0 U/mg	19.1 U/mg	19.1 U/mg	2.1 U/mg protein	2.1 U/mg	2-hydroxy-2-phenylacetaldehyde	
CCC(=O)C(=O)CC [3,4-hexanedione]	7.3 U/mg	7.3 U/mg	2 U/mg	2.0 U/mg		0.6 U/mg		
CCC(=O)C(C)=O [2,3-pentanedione]	89.3 U/mg	89.3 U/mg	6.2 U/mg	6.2 U/mg		0.6 U/mg	2-hydroxy-pentane-3-one	2-hydroxy-pentan-3-one
CC(=O)C=O [methylglyoxal]	3.4 U/mg	3.4 U/mg	19.3 U/mg	19.3 U/mg		1.4 U/mg		
CCCC(=O)C(C)=O [2,3-hexanedione]	50.1 U/mg	50.1 U/mg	6.5 U/mg	6.5 U/mg	2.3 U/mg protein	2.3 U/mg	2-hydroxy-hexane-3-one	
